In ChEMBL document CHEMBL1128212, “Synthesis and biological evaluation of substituted flavones as gastroprotective agents” (1995) one finds Protection, Concentration (nM min-1 (mg of protein)-1) and ED50 data, which are given here for 39 compounds.

Usually ED50 stands for the midpoint of the dose-response relation. A high value points to a need for a large dose.

The subject of assay [1] is Rattus norvegicus. The assay can be described thus: Gastroprotection percentage taken from rat indomethacin damage model at a dose 0.25 mg/kg administered orally. It is filed as functional. The settings on record: route oral.
Assay [2] concerns Rattus norvegicus. The experiment in a line: Percent protection from gastric damage in rats relative to vehicle control following intraperitoneal administration of 20 mg/Kg. The class given is functional, Stomach.
In assay [3] the test system is Rattus norvegicus. The experiment in a line: Compound was evaluated for its effect on rat liver microsomal EROD(7-ethoxyresorufin O-dealkylase) by the change in its concentration at a dose of 250 mg/kg. Set-up: dose 250 mg/kg. It is filed as functional, organism-based. For orientation: Liver microsomes are a subcellular fraction often used to study metabolism.
The subject of assay [4] is Rattus norvegicus. The assay can be described thus: Compound was evaluated for its effect on rat liver microsomal NADPH-[…] c reductase by the change in its concentration at a dose of 250 mg/kg. The class given is functional, organism-based. On the set-up: dose 250 mg/kg.
Assay [5] relates to Rattus norvegicus. The experiment in a line: Compound was evaluated for its effect on rat liver microsomal cytochrome P450 by the change in its concentration at a dose of 250 mg/kg. It is filed as functional, organism-based. Set-up: dose 250 mg/kg.
The subject of assay [6] is Rattus norvegicus. The experiment in a line: Compound was evaluated for its effect on rat liver microsomal cytochrome b5 by the change in its concentration at a dose of 250 mg/kg. It is filed as functional, organism-based. On the set-up: dose 250 mg/kg.
Assay [7] is filed under the species Rattus norvegicus. The experiment in a line: The dose required to produce a 50% gastroprotection level relative to control. The class given is functional.
For assay [8], the system named is Rattus norvegicus. The experiment in a line: Compound was evaluated for its effect on rat liver microsomal EROD(7-ethoxyresorufin O-dealkylase) by the change in its concentration at a dose of 100 mg/kg. The class given is functional, organism-based. On the set-up: dose 100 mg/kg.
Assay [9] has as its system Rattus norvegicus. The assay can be described thus: Compound was evaluated for its effect on rat liver microsomal NADPH-[…] c reductase by the change in its concentration at a dose of 100 mg/kg. The class given is functional, organism-based. Set-up: dose 100 mg/kg.
Assay [10] relates to Rattus norvegicus. The experiment in a line: Compound was evaluated for its effect on rat liver microsomal cytochrome b5 by the change in its concentration at a dose of 100 mg/kg. It is filed as functional, organism-based. Set-up: dose 100 mg/kg.
Assay [11] concerns Rattus norvegicus. The experiment in a line: Compound was evaluated for its effect on rat liver microsomal cytochrome P450 by the change in its concentration at a dose of 100 mg/kg. It is filed as functional, organism-based. On the set-up: dose 100 mg/kg.
For assay [12], the system named is Rattus norvegicus. The experiment in a line: Compound was evaluated for its effect on rat liver microsomal EROD(7-ethoxyresorufin O-dealkylase) by the change in its concentration at a dose of 268 mg/kg. The class given is functional, organism-based. On the set-up: dose 268 mg/kg.
The subject of assay [13] is Rattus norvegicus. The assay can be described thus: Compound was evaluated for its effect on rat liver microsomal NADPH-[…] c reductase by the change in its concentration at a dose of 268 mg/kg. The class given is functional, organism-based. On the set-up: dose 268 mg/kg.
For assay [14], the system named is Rattus norvegicus. The experiment in a line: Compound was evaluated for its effect on rat liver microsomal cytochrome P450 by the change in its concentration at a dose of 268 mg/kg. On the set-up: dose 268 mg/kg. It is filed as functional, organism-based.
The test system of assay [15] is Rattus norvegicus. The assay can be described thus: Compound was evaluated for its effect on rat liver microsomal cytochrome b5 by the change in its concentration at a dose of 268 mg/kg. The class given is functional, organism-based. Set-up: dose 268 mg/kg.
The test system of assay [16] is Rattus norvegicus. The assay can be described thus: Gastroprotection percentage taken from rat indomethacin damage model at a dose 30 mg/kg administered orally. The class given is functional. To be noted: route oral.

On to `CCCCC[C@H](O)/C=C/[C@H]1[C@H](O)CC(=O)[C@@H]1C/C=C\CCCC(=O)O` [DINOPROSTONE], for which the Protection in the assay with Rattus norvegicus [1] is 61%; in the assay on Rattus norvegicus [2] it was 82%.
Turning to `O=c1c(O)c(-c2ccccc2)oc2ccccc12` [FLAVONOL], the Protection with Rattus norvegicus [2] was found to be 47%.
Still for that read-out and setting: with `COc1cccc2oc(-c3ccccc3Cl)cc(=O)c12` the figure was 89%.
For the compound `COc1ccc2c(=O)cc(-c3ccccc3)oc2c1` [7-METHOXYFLAVONE], the Concentration (nM min-1 (mg of protein)-1) was 442 in the assay with Rattus norvegicus [3], 339 with Rattus norvegicus [4], 1.42 with Rattus norvegicus [5] and 0.73 in the assay with Rattus norvegicus [6]. In the assay listed under Rattus norvegicus [7], this compound gave a median effective dose (ED50) of 5.9 mg/kg. For the same compound, the Protection in the assay on Rattus norvegicus [2] is recorded as 89%.
`COc1cccc2oc(-c3ccc(Cl)cc3)cc(=O)c12`: the Protection in the assay on Rattus norvegicus [2] is given as 94%.
On to `O=c1cc(-c2ccccc2O)oc2ccccc12`, for which the 50% effect level in the assay listed under Rattus norvegicus [7] (ED50) was put at a dose of 15.6 mg/kg. For the same compound, the Protection with Rattus norvegicus [2] was 78%.
`COc1ccccc1-c1cc(=O)c2ccccc2o1`: the 50% effect level in the assay listed under Rattus norvegicus [7] (ED50) was put at a dose of 22.4 mg/kg. In addition, the Protection in the assay on Rattus norvegicus [2] came out at 66%.
In the assay on Rattus norvegicus [2], `O=c1cc(-c2ccccc2)oc2cccc(O)c12` [5-HYDROXYFLAVONE] had a Protection of 58%.
Take `CCCCOc1cccc2oc(-c3ccccc3)cc(=O)c12`: the Protection in the assay with Rattus norvegicus [2] worked out at 75%.
For `COc1cccc2oc(-c3cccc(C(F)(F)F)c3)cc(=O)c12`, in the assay listed under Rattus norvegicus [7], the ED50 was 3.3 mg/kg. In addition, the Protection in the assay with Rattus norvegicus [2] worked out at 90%.
Taken in the same sequence, the figures for `O=c1cc(-c2ccccc2)oc2ccccc12` [FLAVONE] were 6.9 mg/kg and 93%.
As to `COc1cccc2oc(-c3ccc(C(F)(F)F)cc3)cc(=O)c12`, the Protection with Rattus norvegicus [2] is 65%.
The same measure, in the same setting: the figure for `COc1ccc2c(=O)cc(-c3cccc(C(F)(F)F)c3)oc2c1` is 67%.
On the same count and under the same terms, with `CCOc1ccc2c(=O)cc(-c3ccccc3)oc2c1` the figure was 87%; with `COc1cccc2oc(-c3ccc([N+](=O)[O-])cc3)cc(=O)c12`, 52%.
Same read-out and setting: with `COc1ccc(-c2cc(=O)c3ccccc3o2)cc1` [4'-METHOXYFLAVONE] the figure was 21%; with `O=c1cc(-c2ccccc2)oc2c(O)cccc12`, 46%.
On to `O=c1cc(-c2ccccc2)oc2ccc(O)cc12` [6-HYDROXYFLAVONE], for which, in the assay on Rattus norvegicus [2], the Protection turned out to be 57%.
`COc1c(-c2ccccc2)oc2ccccc2c1=O` yielded a Protection in the assay on Rattus norvegicus [2] of 41%.
On the same count and under the same terms, the figure for `O=c1cc(-c2ccc(O)cc2)oc2ccccc12` is 63%.
The same measure, in the same setting: with `COc1cccc(-c2cc(=O)c3ccccc3o2)c1` the figure was 48%.
For `O=c1cc(-c2ccccc2)oc2ccc3ccccc3c12`, the Concentration (nM min-1 (mg of protein)-1) stood at 5010 in the assay on Rattus norvegicus [8], 166 in the assay on Rattus norvegicus [9], 0.79 in the assay with Rattus norvegicus [10] and 2.02 with Rattus norvegicus [11].
The compound `COc1cccc2oc(-c3ccc(C)cc3)cc(=O)c12` had a Protection in the assay on Rattus norvegicus [2] of 93%.
Consider `Cc1ccc2c(=O)cc(-c3ccccc3)oc2c1` [7-METHYLFLAVONE], for which, in the assay filed under Rattus norvegicus [7], the median effective dose (ED50) is 5.6 mg/kg. Moreover, the Protection in the assay with Rattus norvegicus [2] is reported as 90%.
Turning to `Cc1ccc(-c2cc(=O)c3ccccc3o2)cc1`, the Protection in the assay with Rattus norvegicus [2] was 68%.
In the assay listed under Rattus norvegicus [7], `COc1cccc2oc(-c3ccccc3)cc(=O)c12` yielded a median effective dose (ED50) of 2.6 mg/kg. In the assay on Rattus norvegicus [2], this compound gave a Protection of 97%.
Compound `CCOc1cccc2oc(-c3ccccc3)cc(=O)c12` came in with a Protection in the assay on Rattus norvegicus [2] of 36%.
Still for that read-out and setting: the figure for `Cc1cccc2oc(-c3ccccc3)cc(=O)c12` is 52%; for `COc1ccc2c(=O)cc(-c3ccccc3Cl)oc2c1` it is 80%; for `COc1cccc2c(=O)cc(-c3ccccc3)oc12` [8-METHOXYFLAVONE] it is 53%.
On to `O=c1cc(-c2ccccc2)oc2cc(O)ccc12` [7-HYDROXYFLAVONE], for which the Protection in the assay on Rattus norvegicus [2] worked out at 75%.
In turn, `CN/C(=N\CCSCc1nc[nH]c1C)NC#N` [CIMETIDINE] showed a Protection in the assay on Rattus norvegicus [2] of 14%.
On the same count and under the same terms, with `Cc1ccccc1-c1cc(=O)c2ccccc2o1` the figure was 92%; with `C=CCOc1cccc2oc(-c3ccccc3)cc(=O)c12`, 57%; with `O=c1cc(-c2cccc(O)c2)oc2ccccc12`, 71%.
Consider `COc1cccc2oc(-c3ccc(F)cc3)cc(=O)c12`, for which the Concentration (nM min-1 (mg of protein)-1) in the assay with Rattus norvegicus [12] was 1110; with Rattus norvegicus [13], 275; with Rattus norvegicus [14] it was 1.17; in the assay with Rattus norvegicus [15] it was 0.65. The compound further yielded a median effective dose (ED50) in the assay listed under Rattus norvegicus [7] of 5.5 mg/kg. For the same compound, the Protection with Rattus norvegicus [16] stood at 76%; in the assay on Rattus norvegicus [2], 97%.
`COc1ccc(-c2cc(=O)c3c(OC)cccc3o2)cc1` registered a Protection with Rattus norvegicus [2] of 33%.
Same read-out and setting: the figure for `COc1ccc2oc(-c3ccccc3)cc(=O)c2c1` [6-METHOXYFLAVONE] is 29%.
`COc1ccc2c(=O)cc(-c3ccc(F)cc3)oc2c1` yielded a median effective dose (ED50) in the assay filed under Rattus norvegicus [7] of 8.9 mg/kg. Moreover, in the assay on Rattus norvegicus [2], the Protection came out at 67%.
